Results: ChEMBL document CHEMBL1150645, “A new secosterol from the Indonesian octocoral Pachyclavularia violacea” (J Nat Prod, 2002)

How the values were obtained:
Format in all cases: functional, cell-based
HT-29 = test: Cytotoxicity against human HT-29 cells
A549 = test: Cytotoxicity against human A549 cells
SK-MEL-28 = test: Cytotoxicity against human SK-MEL-28 cells
P388 = test: Cytotoxicity against mouse P388 cells

Measured: IC50

CC(=O)O[C@@H]1C/C=C(/C)C[C@H]2O[C@H]3[C@@H]4[C@H]2C(C)=CC(=O)[C@@H]4[C@@H](C)CO[C@@]13C [PACHYCLAVULARIAENONE B]
> 1 µg/mL: all assays above

CC(C)[C@@H](C)CC[C@@H](C)[C@H]1CC[C@@H]([C@@H]2C[C@H]3O[C@]34C[C@@H](O)CC[C@]4(C)C2=O)[C@]1(C)CCO [SECOSTEROL]
> 1 µg/mL: all assays above
